Test [1] concerns Staphylococcus aureus S13E. The test can be described thus: MIC, standard agar-dilution assay. In kind it is cell-based.
Test [2] deals with Streptococcus pyogenes C203. The test can be described thus: MIC, standard agar-dilution assay. In kind it is cell-based. The following applies: read-out: MIC.
For test [3], the system named is Streptococcus pneumoniae Park I. In words: MIC, standard agar-dilution assay. In kind it is cell-based. The note with it: read-out: MIC.
Test [4] concerns Haemophilus influenzae 76. In words: MIC, standard agar-dilution assay. In kind it is cell-based. The note with it: Haemophilus influenzae 76, Ampicillin-resistant strain; read-out: MIC.
The subject of test [5] is Escherichia coli EC14. In words: MIC, standard agar-dilution assay. In kind it is cell-based. The following applies: read-out: MIC.
For test [6], the system named is Streptococcus sp. group D X66. The test can be described thus: MIC, standard agar-dilution assay. The following applies: Streptococcus sp. group D X66; read-out: MIC. In kind it is cell-based.
Test [7] has as its system Haemophilus influenzae C.L. In words: MIC, standard agar-dilution assay. The following applies: Ampicillin-sensitive strain, read-out: MIC. It counts as cell-based.
In test [8] the test system is Streptococcus sp. group D 2041. In words: MIC, standard agar-dilution assay. The note with it: read-out: MIC. It counts as cell-based.
The test system of test [9] is Staphylococcus aureus. In words: Experimental bacterial infection in mice, ED50. In kind it is in vivo. The note with it: Staphylococcus aureus, two doses, dose protecting 50% of animals. The method, then:
(§1) The new derivatives of this invention have also shown in vivo antimicrobial activity against experimental bacterial infections. When two doses of test compound were administered to mice in experimental infections, the activity observed was measured as an EDso value [effective dose in mg/kg to protect 50% of the test animals: see Warren Wick, et al., J. Bacteriol. 81, 233-235 (1961)].

The subject of test [10] is Streptococcus pyogenes. The test can be described thus: Experimental bacterial infection in mice, ED50. In kind it is in vivo. The note with it: Streptococcus pyogenes, two doses, dose protecting 50% of animals. As for the experimental part:
as §1

Test [11] relates to Streptococcus pneumoniae. The test can be described thus: Experimental bacterial infection in mice, ED50. It counts as in vivo. The following applies: Streptococcus pneumoniae, two doses, dose protecting 50% of animals. The method, then: as §1
Test [12] deals with Staphylococcus aureus X1.1. In words: MIC, standard agar-dilution assay. In kind it is cell-based. The note with it: read-out: MIC.
The test system of test [13] is Staphylococcus epidermidis 222. The test can be described thus: MIC, standard agar-dilution assay. It counts as cell-based. The note with it: read-out: MIC.
The mark [14] stands for this setting: sc, subcutaneous, read-out: Subcutaneous ED50.

The structures appear in SMILES notation. ≈ marks a conversion by molar mass, not a printed value. Where two headings read alike, the source gives them in different places.

The term ED50 denotes the midpoint of the dose-response relation. Regarding `CC[C@H]1OC(=O)[C@H](C)[C@@H](O[C@H]2C[C@@](C)(OC)[C@@H](O)[C@H](C)O2)[C@H](C)[C@@H](O[C@@H]2O[C@H](C)C[C@H](N(C)C)[C@H]2O)[C@](C)(O)C[C@@H](C)[C@H](NCCCc2ccccc2)[C@H](C)[C@@H](O)[C@]1(C)O` [Compound 17, (9S)-9-Deoxo-9-[(3-phenypropyl)amino]erythromycin], the MIC in [1] came to 0.5 µg/mL (≈ 0.586 µM); in test [2] it was 0.015 µg/mL (≈ 0.0176 µM); in test [3], 0.015 µg/mL (≈ 0.0176 µM); in test [4] it was 2 µg/mL (≈ 2.34 µM); in [5], 128 µg/mL (≈ 150 µM); in test [6], 0.06 µg/mL (≈ 0.0703 µM). In addition, the MIC worked out at 2 µg/mL (≈ 2.34 µM) in [7], 2 µg/mL (≈ 2.34 µM) in [8], 1 µg/mL (≈ 1.17 µM) in test [12] and 0.5 µg/mL (≈ 0.586 µM) in [13]. In addition, the ED50 in [9] (po, read-out: Oral ED50) was 36.9 mg/kg; in test [10] (po, read-out: Oral ED50), 14.1 mg/kg; in test [11] (po, read-out: Oral ED50), 17.2 mg/kg.

On to `CCOC(=O)C1CC1CN[C@@H]1[C@H](C)[C@@H](O)[C@](C)(O)[C@@H](CC)OC(=O)[C@H](C)[C@@H](O[C@H]2C[C@@](C)(OC)[C@@H](O)[C@H](C)O2)[C@H](C)[C@@H](O[C@@H]2O[C@H](C)C[C@H](N(C)C)[C@H]2O)[C@](C)(O)C[C@H]1C` (some centres unmarked) [Compound 27, 9-Deoxo-9-[[[2-(ethoxycarbonyl)cyclopropyl]methyl]amino]erythromycin], for which the ED50 was found to be 50 mg/kg in test [9] (po, read-out: Oral ED50); 27.1 mg/kg in test [10] (po, read-out: Oral ED50); 30.4 mg/kg in test [11] (po, read-out: Oral ED50).

With `CCCCCCN[C@@H]1[C@H](C)[C@@H](O)[C@](C)(O)[C@@H](CC)OC(=O)[C@H](C)[C@@H](O[C@H]2C[C@@](C)(OC)[C@@H](O)[C@H](C)O2)[C@H](C)[C@@H](O[C@@H]2O[C@H](C)C[C@H](N(C)C)[C@H]2O)[C@](C)(O)C[C@H]1C` [Compound 6, 9-Deoxo-9-(n-hexylamino)erythromycin], the MIC in test [1] is 1 µg/mL (≈ 1.22 µM); in test [2], 0.125 µg/mL (≈ 0.153 µM); in test [3] it was less than 0.008 µg/mL; in test [4], 4 µg/mL (≈ 4.88 µM); in [5], 64 µg/mL (≈ 78.1 µM); in test [6], 0.125 µg/mL (≈ 0.153 µM). In addition, the MIC in test [7] turned out to be 4 µg/mL (≈ 4.88 µM); in test [8], 4 µg/mL (≈ 4.88 µM); in [12], 1 µg/mL (≈ 1.22 µM); in test [13], 0.25 µg/mL (≈ 0.305 µM). Further, the ED50 was 38.6 mg/kg in [9] (po, read-out: Oral ED50); 17.7 mg/kg in test [10] (po, read-out: Oral ED50); 14.3 mg/kg in test [11] (po, read-out: Oral ED50).

For `CC[C@H]1OC(=O)[C@H](C)[C@@H](O[C@H]2C[C@@](C)(OC)[C@@H](O)[C@H](C)O2)[C@H](C)[C@@H](O[C@@H]2O[C@H](C)C[C@H](N(C)C)[C@H]2O)[C@](C)(O)C[C@@H](C)[C@H](NCCCC#N)[C@H](C)[C@@H](O)[C@]1(C)O` [Compound 29, 9-Deoxo-9-[(3-cyanopropyl)amino]erythromycin], the ED50 worked out at 36.1 mg/kg in test [9] (po, read-out: Oral ED50); 21.1 mg/kg in test [10] (po, read-out: Oral ED50); 28.7 mg/kg in test [11] (po, read-out: Oral ED50).

Turning to `CC[C@H]1OC(=O)[C@H](C)[C@@H](O[C@H]2C[C@@](C)(OC)[C@@H](O)[C@H](C)O2)[C@H](C)[C@@H](O[C@@H]2O[C@H](C)C[C@H](N(C)C)[C@H]2O)[C@](C)(O)C[C@@H](C)[C@H](NCCOC)[C@H](C)[C@@H](O)[C@]1(C)O` [Compound 31, 9-Deoxo-9-[(2-Methoxyethyl)amino]erythromycin], the 50% effective dose (ED50) in test [9] (po, read-out: Oral ED50) came to 35.2 mg/kg; in test [9] (setting [14]) it was 2.5 mg/kg; in test [10] (po, read-out: Oral ED50), 16.3 mg/kg; in test [10] (setting [14]) it was 2.1 mg/kg; in test [11] (po, read-out: Oral ED50) it was 18.7 mg/kg; in test [11] (setting [14]) it was 3.3 mg/kg.

As to `CCCCCCCN[C@@H]1[C@H](C)[C@@H](O)[C@](C)(O)[C@@H](CC)OC(=O)[C@H](C)[C@@H](O[C@H]2C[C@@](C)(OC)[C@@H](O)[C@H](C)O2)[C@H](C)[C@@H](O[C@@H]2O[C@H](C)C[C@H](N(C)C)[C@H]2O)[C@](C)(O)C[C@H]1C` [Compound 7, 9-Deoxo-9-(-n-heptylamino)erythromycin], the MIC worked out at 0.015 µg/mL (≈ 0.018 µM) in test [2]; 0.015 µg/mL (≈ 0.018 µM) in test [3]; 2 µg/mL (≈ 2.4 µM) in [4]; 64 µg/mL (≈ 76.8 µM) in test [5]; 0.06 µg/mL (≈ 0.072 µM) in [6]; 1 µg/mL (≈ 1.2 µM) in [7]. Further, the MIC in [8] amounted to 2 µg/mL (≈ 2.4 µM); in test [12], 0.25 µg/mL (≈ 0.3 µM); in [13] it was 0.25 µg/mL (≈ 0.3 µM). Besides, the ED50 was more than 50 mg/kg in test [9] (po, read-out: Oral ED50); 30.6 mg/kg in [10] (po, read-out: Oral ED50); 33.2 mg/kg in test [11] (po, read-out: Oral ED50).

Regarding `CC[C@H]1OC(=O)[C@H](C)[C@@H](O[C@H]2C[C@@](C)(OC)[C@@H](O)[C@H](C)O2)[C@H](C)[C@@H](O[C@@H]2O[C@H](C)C[C@H](N(C)C)[C@H]2O)[C@](C)(O)C[C@@H](C)[C@H](NCCC2=C(C)CCCC2(C)C)[C@H](C)[C@@H](O)[C@]1(C)O` [Compound 30, 9-Deoxo-9-[[2-(2,6,6-trimethyl-1-cyclohexen-1-yl)ethyl]amino]erythromycin], the ED50 in test [9] (po, read-out: Oral ED50) is more than 50 mg/kg; in test [10] (po, read-out: Oral ED50), more than 50 mg/kg; in test [11] (po, read-out: Oral ED50) it was more than 50 mg/kg.

On to `CCCCCCCCCCN[C@@H]1[C@H](C)[C@@H](O)[C@@H](C)[C@@H](CC)OC(=O)[C@H](C)[C@@H](O[C@H]2C[C@@](C)(OC)[C@@H](O)[C@H](C)O2)[C@H](C)[C@@H](O[C@@H]2O[C@H](C)C[C@H](N(C)C)[C@H]2O)[C@](C)(O)C[C@H]1C` [Compound 41], for which the 50% effective dose (ED50) in [9] (po, read-out: Oral ED50) is more than 50 mg/kg; in test [10] (po, read-out: Oral ED50), more than 50 mg/kg; in test [11] (po, read-out: Oral ED50) it was more than 50 mg/kg.

Turning to `CC[C@H]1OC(=O)[C@H](C)[C@@H](O[C@H]2C[C@@](C)(OC)[C@@H](O)[C@H](C)O2)[C@H](C)[C@@H](O[C@@H]2O[C@H](C)C[C@H](N(C)C)[C@H]2O)[C@](C)(O)C[C@@H](C)[C@H](NCCCSC)[C@H](C)[C@@H](O)[C@]1(C)O` [Compound 26, 9-Deoxo-9-[[3-(methylthio)propyl]amino]erythromycin], the MIC in test [1] was 0.25 µg/mL (≈ 0.304 µM); in test [2], 0.015 µg/mL (≈ 0.0182 µM); in [3], 0.015 µg/mL (≈ 0.0182 µM); in test [4], 4 µg/mL (≈ 4.86 µM); in [5], 128 µg/mL (≈ 156 µM); in test [6], 0.25 µg/mL (≈ 0.304 µM). Also, the MIC in test [7] worked out at 4 µg/mL (≈ 4.86 µM); in [8] it was 2 µg/mL (≈ 2.43 µM); in test [12], 0.5 µg/mL (≈ 0.607 µM); in [13] it was 0.5 µg/mL (≈ 0.607 µM). The ED50 in test [10] (po, read-out: Oral ED50) is 7.9 mg/kg; in test [11] (po, read-out: Oral ED50) it was 9.2 mg/kg.

Take `CCCN[C@@H]1[C@H](C)[C@@H](O)[C@@H](C)[C@@H](CC)OC(=O)[C@H](C)[C@@H](O[C@H]2C[C@@](C)(OC)[C@@H](O)[C@H](C)O2)[C@H](C)[C@@H](O[C@@H]2O[C@H](C)C[C@H](N(C)C)[C@H]2O)[C@](C)(O)C[C@H]1C` [Compound 38]: the ED50 in test [9] (po, read-out: Oral ED50) is 41 mg/kg; in test [10] (po, read-out: Oral ED50), 20.6 mg/kg; in [11] (po, read-out: Oral ED50) it was 50 mg/kg.

Regarding `CC[C@H]1OC(=O)[C@H](C)[C@@H](O[C@H]2C[C@@](C)(OC)[C@@H](O)[C@H](C)O2)[C@H](C)[C@@H](O[C@@H]2O[C@H](C)C[C@H](N(C)C)[C@H]2O)[C@](C)(O)C[C@@H](C)[C@H](NCCOCCOC)[C@H](C)[C@@H](O)[C@H]1C` [Compound 49], the ED50 in test [9] (po, read-out: Oral ED50) is more than 50 mg/kg; in [10] (po, read-out: Oral ED50), 40.9 mg/kg; in test [11] (po, read-out: Oral ED50), more than 56 mg/kg.

Source of the values: patent EP0238178B1, “Novel derivatives of erythromycylamine” (ELI LILLY AND COMPANY, priority 1986, dated 1987).
